This note sets out measurements from US8269017B2, “Compounds for the treatment of proliferative disorders” (Synta Pharmaceuticals Corporation, priority 2005, dated 2012).

pIC50: −log10 of the molar value. Entries after “also recorded” stand apart in the source; their conditions may differ.

Data set [1] has as its system MES-SA (uterine sarcoma). Description: In vitro cytotoxicity, MTS assay, MES-SA. Type of data set: cell-based, human. The note with it: Homo sapiens, MES-SA (Uterine Carcinoma), 72 hours, read-out: IC50. The method, boiled down:
(§1)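 Exponentially growing cells in RPMI1640 with 10% FCS at 2.5×10^4 cells/mL were exposed to compound at final 10, 1, 0.1, 0.01 and 0.001 μM, diluted from 10 mM DMSO stock. Viability read by MTS.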
In general terms: Formazan colour is commonly taken as a measure of viable cells.

Data set [2] can be described thus: Body weight change in EMT6 tumor growth study. Type of data set: in vivo, nude mouse. On the procedure:
Seven to eight week old, female Crl:CD-1-nuBR (nude) mice were obtained from Charles River Laboratories (Wilmington, Mass., USA). Animals were housed 4-5/cage in micro-isolators, with a 12 hr/12 hr light/dark cycle, acclimated for at least 1 week prior to use and fed normal laboratory chow ad libitum. Studies were conducted on animals between 8 and 10 weeks of age at implantation. To implant EMT6 tumor cells into nude mice, the cells were trypsinized as above, washed in PBS and resusupended at a concentration of 10×10^6 cells/mL in PBS. Using a 27 gauge needle and 1 cc syringe, 0.1 mL of the cell suspension was injected subcutaneously into the flank of each nude mouse. Tumor-bearing animals were given single intravenous (i.v.) bolus injections of either vehicle or Compound 174 at 10 mL per kg body weight. To measure the effect of the drug treatment on tumor growth rates, tumor volumes were measured 3 days after dosing (FIG. 22).

Data set [3] deals with HL-60 (T-cell leukemia). The data set is described as follows: In vitro cytotoxicity, MTS assay, HL-60. Type of data set: cell-based, human. As to conditions: Homo sapiens, HL-60, HL60 (Leukemia), 72 hours, read-out: IC50. Put shortly: as §1
Data set [4] relates to human tumor cell line MDA-MB-435S. The data set is described as follows: Nude mouse xenograft, MDA-MB-435S (Example 10). Type of data set: in vivo. The note with it: Compound 169 at 2 mg/kg, Compound 174 at 4.55 mg/kg body weight, i.v., 1 time/week, 3 doses. The procedure:
(§2) Seven to eight week old, female Crl:CD-1-nuBR (nude) mice were obtained from Charles River Laboratories (Wilmington, Mass., USA). Animals were housed 4-5/cage in micro-isolators, with a 12 hr/12 hr light/dark cycle, acclimated for at least 1 week prior to use and fed normal laboratory chow ad libitum. Studies were conducted on animals between 8 and 10 weeks of age at implantation. To implant MDA-MB-4355 tumor cells into nude mice, the cells were trypsinized as above, washed in PBS and resusupended at a concentration of 50×10(6) cells/ml in PBS. Using a 27 gauge needle and 1 cc syringe, 0.1 ml of the cell suspension was injected into the corpus adiposum of nude mice. The corpus adiposum is a fat body located in the ventral abdominal vicera in the right quadrant of the abdomen at the juncture of the os coxae (pelvic bone) and the os femoris (femur).
Tumors were then permitted to develop in vivo until the majority reached an average of 100-200 mm^3 in tumor volume, which typically required 2-3 weeks following implantation. […] Tumor volumes (V) were calculated by caliper measurement of the width (W), length (L) and thickness (T) of tumors using the following formula: V=0.5236×(L×W×T). Animals were randomized into treatment groups so that the median tumor volumes of each group were similar at the start of dosing. % T/C values, as a measure of efficacy, were determined as follows: • (i) If ΔT>0: % T/C=[…] • (ii) If ΔT<0: % T/C=(ΔT/T0)×100 • (iii) ΔT=Change in median tumor volume between start of dosing and the end of study. • (iv) ΔC=Change in median tumor volume between start of dosing and the end of study. • (v) T0=Median tumor volume at start of dosing.
(§3) Compounds were formulated in either D5W (Compounds 169 and 174) or DRD (Compound 178). For formulations in D5W, solutions of test articles were prepared by dissolving the appropriate amounts of each compound in 5% dextrose in water (Abbott Laboratories, North Chicago, Ill., USA) by sonication in an ultrasonic water bath. For formulations in DRD, stock solutions of test articles were prepared by dissolving the appropriate amounts of each compound in dimethyl sulfoxide (DMSO) by sonication in an ultrasonic water bath. Stock solutions were prepared weekly, stored at −20° C. and diluted fresh each day for dosing. A solution of 20% Cremophore RH40 (polyoxyl 40 hydrogenated castor oil; BASF Corp., Aktiengesellschaft, Ludwigshafen, Germany) in 5% dextrose in water (Abbott Laboratories, North Chicago, Ill., USA) was also prepared by first heating 100% Cremophore RH40 at 50-60° C. until liquefied and clear, diluting 1:5 with 100% D5W, reheating again until clear and then mixing well. This solution was stored at room temperature for up to 3 months prior to use. […]

Data set [5] in a line: Body weight change in MDA-MB-435S xenograft study (Example 10). Type of data set: in vivo, nude mouse. As to conditions: Compound 169 at 2 and 1 mg/kg, Compound 174 at 4.55 and 2.28 mg/kg body weight, i.v., 1 time per week, 3 doses; Hydrochloride. The procedure:
as §2
as §3, with “use. To prepare DRD formulations for daily dosing, DMSO stock solutions were diluted 1:10 with 20% Cremophore RH40.” for “use.”

Data set [6] deals with MES-SA/DX5 (uterine sarcoma, MDR-1). The data set is described as follows: cells. Type of data set: cell-based. The note with it: Homo sapiens, MDR1, 72 h, MES/DX5 (MDR-1), MTS assay. Put shortly: as §1

In the case of `COc1ccc(-c2cnoc2-c2cc(OC)c(OC)c(OC)c2)cc1NC(=O)C(N)Cc1ccccc1.Cl` (stereo not shown) [Compound 174, 2-amino-N-(2-methoxy-5-(5-(3,4,5-trimethoxyphenyl)isoxazol-4-yl)phenyl)-3-phenylpropanamide Hydrochloride], the pIC50 (commonly the negative decadic logarithm of the IC50, by convention in mol/L) is 10.00 in data set [1], 8.70 in data set [3] and 10.00 in data set [6]. The “largest average percent change in body weight” value in data set [2] (4.55 mg/kg body weight single i.v., one day after dosing) is −7.3%. For the same molecule, the “body weight lost by any individual animal” value in data set [2] (any point over the course of the study) is recorded as ≤ 11%. Moreover, the “% T/C” value in data set [4] turned out to be 25%. The “overt toxicity (effect on body weights)” value in data set [5] is reported as “not overtly toxic; also recorded: not associated with overt toxicity”.
